Measured values as given in BindingDB's records for doi:10.1021/acs.jmedchem.6b01196 (National Institute of Biological Sciences, 2017).

experiment: Inhibition of RIP1 in mouse L929 cells assessed as reduction in TNFalpha/z-VAD-FMK-induced necrosis after 6 hrs by Cell Titer-Glo luminescent cell viability assay

Row | SMILES | EC50 [nM]
1 | CCC(C)(C)C(=O)N(O)Cc1ccccc1 | 27

experiment: Inhibition of RIP1 in human HT-29 cells assessed as reduction in TNFalpha/z-VAD-FMK-induced necrosis after 24 hrs by Cell Titer-Glo luminescent cell viability assay

Row | SMILES | EC50 [nM]
2 | CCC(C)(C)C(=O)N(O)Cc1cc(F)c(F)c(F)c1 | 49
3 | CCC(C)(C)C(=O)N(O)Cc1ccc(F)c(F)c1F | 262
4 | CCC(C)(C)C(=O)N(O)Cc1ccc(F)cc1F | 198
5 | CCC(C)(C)C(=O)N(O)Cc1ccc(F)cc1 | 64
6 | CCC(C)(C)C(=O)N(O)Cc1ccccc1 | 28
7 | CCC(C)(C)C(=O)NC1(c2ccccc2)CC1 | > 5000
8 | CCC(C)(C)C(=O)N(C)C(CO)c1ccccc1 (stereo not given) | > 10000
9 | CCC(C)(C)C(=O)NC(CO)c1ccccc1 (stereo not given) | 1080
10 | CCC(C)(C)C(=O)N(C)C(C)c1ccccc1 (stereo not given) | > 10000
11 | CCC(C)(C)C(=O)NC(C)c1ccccc1 (stereo not given) | > 10000
12 | CC1CCCCN1C(=O)N(C)Cc1cc(F)cc(F)c1F (stereo not given) | > 3000
13 | CC(C)N(C(=O)N(C)Cc1cc(F)cc(F)c1F)C(C)C | > 3000
14 | CC(C)N(C)C(=O)N(C)Cc1cc(F)cc(F)c1F | > 3000
15 | CN(Cc1cc(F)cc(F)c1F)C(=O)C1(C)CCCCC1 | 490
16 | CN(Cc1cc(F)cc(F)c1F)C(=O)C1(C(F)(F)F)CCCC1 | 1230
17 | CN(Cc1cc(F)cc(F)c1F)C(=O)C1(C(F)(F)F)CCC1 | 656
18 | CN(Cc1cc(F)cc(F)c1F)C(=O)C1CCC1 | 8240
19 | CN(Cc1cc(F)cc(F)c1F)C(=O)C1(C)CC1 | > 10000
20 | CN(Cc1cc(F)cc(F)c1F)C(=O)C(C)(C)CO | > 3000
21 | COC(C)(C)C(=O)N(C)Cc1cc(F)cc(F)c1F | > 10000
22 | CN(Cc1cc(F)cc(F)c1F)C(=O)C(C)(C)C | 98
23 | CCC(C)(C)C(=O)N(C)Cc1ccn(C)n1 | > 10000
24 | CCC(C)(C)C(=O)N(C)Cc1cnc(C)s1 | > 10000
25 | CCC(C)(C)C(=O)N(C)Cc1ccco1 | 628

Row | SMILES | EC50 [nM]
26 | CCC(C)(C)C(=O)N(C)Cc1ccc(C)s1 | 378
27 | CCC(C)(C)C(=O)N(C)Cc1sccc1C | 2530
28 | CCC(C)(C)C(=O)N(C)Cc1cccs1 | 221
29 | CCC(C)(C)C(=O)N(C)Cc1cccnc1 | 1740
30 | CCC(C)(C)C(=O)N(C)Cc1ccncc1 | > 10000
31 | CCC(C)(C)C(=O)N(C)Cc1c(F)cc(F)cc1F | 1250
32 | CCC(C)(C)C(=O)N(C)Cc1cc(F)ccc1F | 36
33 | CCC(C)(C)C(=O)N(C)Cc1ccc(F)cc1F | 627
34 | CCC(C)(C)C(=O)N(C)Cc1ccc(F)cc1 | 815
35 | CCC(C)(C)C(=O)N(C)Cc1cccc(O)c1 | > 3000
36 | CCC(C)(C)C(=O)N(C)Cc1cccc(Br)c1 | 1230
37 | CCC(C)(C)C(=O)N(C)Cc1cccc(F)c1 | 72
38 | CCC(C)(C)C(=O)N(C)Cc1ccccc1Cl | > 10000
39 | CCN(Cc1ccccc1F)C(=O)C(C)(C)CC | > 10000
40 | CCC(C)(C)C(=O)N(C)Cc1ccccc1 | 457
41 | CCC(C)(C)C(=O)NCc1cccc(Br)c1 | > 10000
42 | CCC(C)(C)C(=O)NCc1ccccc1F | 898
43 | CCC(C)(C)C(=O)NCc1ccccc1 | 4100
44 | CCC(C)(C)C(=O)N(O)Cc1cc(F)cc(F)c1F | 74
45 | CCC(C)(C)C(=O)N(O)Cc1ccc(F)c(F)c1 | 56
46 | CCC(C)(C)C(=O)N(C)C(C)(C)c1ccccc1 | > 10000
47 | CCC(C)(C)C(=O)NC(C)(C)c1ccccc1 | > 10000
48 | CC1CCCC(C)N1C(=O)N(C)Cc1cc(F)cc(F)c1F (stereo not given) | 1530
49 | CCC(C)(C)C(=O)N(C)Cc1cc(C)c(C)s1 | 1310

experiment: as above; remark: another data set of the same source

Row | SMILES | EC50 [nM]
50 | CCC(C)(C)C(=O)N(C)Cc1ccccc1F | 125
51 | CCC(C)(C)C(=O)N(C)Cc1cc(F)cc(F)c1F | 12
52 | CCC(C)(C)C(=O)N(C)Cc1cccc(Cl)c1 | 628
53 | CCC(C)(C)C(=O)N(C)Cc1cccc(F)c1F | 58
54 | CCC(C)(C)C(=O)NCc1ccccc1Br | 8560
55 | CCC(C)(C)C(=O)N(C)Cc1ccncc1F | > 10000
